Reference: PubChem BioAssay AID1963837 (Molecular Pharmacology Branch, DTP, NCI, 2024)

test system: 843126-344-R-J1-PDC complex spheroid viability; experiment: Anticancer human tumor 843126-344-R-J1-PDC patient-derived melanoma cell line growth inhibition [POLQ]; settings: second compound 0.1 µM; first compound 1 µM; hits give low values
Description: Multicellular complex tumor spheroid response to Polymerase (POL) inhibitors (novobiocin, ART-558, RP6685) in combination with a variety of drugs and investigational agents in selected tumor cell lines
The POL inhibitors (novobiocin, ART-558, and RP6685) were evaluated both individually and in combination with standard of care and investigational anticancer small molecules within a complex spheroid model of solid tumors. . Complex spheroids include a stromal component modeled by human endothelial cells (HUVEC) and fibroblasts modeled by human mesenchymal stem cells (MSCs). The concentration ranges selected for each drug and investigational agent were based upon clinically achievable concentrations if the clinical Cmax of the agent was known.
Compounds. The drugs and investigational agents: novobiocin (NSC847541), ART-558 (NSC835418), RP-6685 (NSC848927), peposertib (NSC802822), ceralasertib (NSC780249), elimusertib (NSC800525), camonsertib (NSC841442), AZD-1390 (NSC803789), olaparib (NSC753686), talazoparib (NSC767125), rucaparib (NSC756644), sotorasib (NSC818433), MRTX-1133 (NSC836407), SN-38 (NSC673596), topotecan (NSC609699), epotoside (NSC141540), doxorubicin (NSC123127), gemcitabine (NSC613327), 5-fluorouracil (NSC19893), paclitaxel (NSC125973), vemurafenib (NSC761431), MSA-2 (NSC828583), SN-011 (NSC837082), adavosertib (NSC754352), prexasertib (NSC758257), carboplatin (NSC241240) and oxaliplatin (NSC266046), were obtained from the National Cancer Institute (NCI) Developmental Therapeutics Program Chemical Repository (21). The FDA-approved anticancer drug set is available from the Developmental Therapeutics Program at https://dtp.cancer.gov/organization/dscb/obtaining/. […] The stock solutions were prepared in dimethyl sulfoxide (DMSO, Sigma-Aldrich, St. Louis, MO, cat. D2650), except for the platinum compounds which were prepared in saline (Quality Biological, Gaithersburg, MD, cat. 114-055-101), at 800-fold the tested concentration and stored at -70 degrees C prior to their use. All drugs and investigational agents were tested over a range starting from a high concentration at or near the clinical Cmax and decreasing in half-log increments. If the clinical Cmax for an agent had not been determined, the highest concentration tested was 10 microM, except for SN-38, which was tested at a high concentration of 1 microM.
Cell Culture. All cells were maintained in an incubator at 37 degrees C and 5% CO2 with 95% humidity. The PDC lines were cultured according to standard operating procedures established by the NCI PDMR (https://pdmr.cancer.gov). Table 3 of the manuscript, lists the cell lines along with the number of the three cell types plated to form the mct-spheroids and media for tumor cell growth. After thawing, all PDC lines, except 997537-175-T-J1-PDC and 415267-285-R-J2-PDC, were cultured in Matrigel-coated flasks prepared with a working solution of 1X Ham's F-12 nutrient mix, without supplementation (Thermo Fisher Scientific, cat. 11765054), 100 U/mL penicillin-streptomycin (Thermo Fisher Scientific, cat. 15140122), and 2.5% Matrigel (Corning Inc., Corning, NY, cat. 354248) for the first three passages. The two PDC lines 997537-175-T-J1-PDC and 415267-285-R-J2-PDC were cultured on uncoated flasks. The 857933-349-R-J2-PDC line was cultured in 6C/Colon 1B media containing advanced DMEM/F-12 (Thermo Fisher Scientific, cat. 12634028), 10 mM HEPES (Thermo Fisher Scientific, cat. 15630080), 1X GlutaMAX supplement (Thermo Fisher Scientific, cat. 35050061), 0.1 mg/mL primocin (InvivoGen, San Diego, CA, cat. ant-pm-2), 10% defined fetal bovine serum, heat inactivated (HyClone Laboratories Inc., Logan, UT, cat. SH30070.03HI), 50% L-WRN conditioned media (ATCC, cat. CRL-3276), 1.25 mM N-Acetyl-L-cysteine (Sigma-Aldrich, cat. A9165), 10 mM nicotinamide (Sigma-Aldrich, cat. N0636), 1X B-27 supplement (Thermo Fisher Scientific, cat. 17504044), 1X N-2 supplement (Thermo Fisher Scientific, cat. […]
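Also: spheroids exposed to drugs for seven days before readout.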

SMILES | viability, T/C
CC1COCCN1c1cc(C2(O)CC3CCC(C2)O3)c2cnn(-c3ccn[nH]3)c2n1 (stereo unspecified) + Cc1cccc(N(C)C(=O)C2C(O)CCN2c2nc(C)cc(C(F)(F)F)c2C#N)c1 | 40.1%
CC1COCCN1c1cc(C2(S(C)(=N)=O)CC2)nc(-c2ccnc3[nH]ccc23)n1 (stereo unspecified) + Cc1cccc(N(C)C(=O)C2C(O)CCN2c2nc(C)cc(C(F)(F)F)c2C#N)c1 | 81.5%
COc1cccc(OCCCN)c1-c1cc(Nc2cnc(C#N)cn2)n[nH]1 + Cc1cccc(N(C)C(=O)C2C(O)CCN2c2nc(C)cc(C(F)(F)F)c2C#N)c1 | 38.2%

same assay, conditions: second compound 0.1 µM; first compound 3.16 µM; hits give low values

SMILES | viability, T/C
CC1COCCN1c1cc(-c2ccnn2C)c2ccnc(-c3ccn[nH]3)c2n1 (stereo unspecified) + Cc1cccc(N(C)C(=O)C2C(O)CCN2c2nc(C)cc(C(F)(F)F)c2C#N)c1 | 42.8%
CC1COCCN1c1cc(C2(O)CC3CCC(C2)O3)c2cnn(-c3ccn[nH]3)c2n1 (stereo unspecified) + Cc1cccc(N(C)C(=O)C2C(O)CCN2c2nc(C)cc(C(F)(F)F)c2C#N)c1 | 28.5%
CC1COCCN1c1cc(C2(S(C)(=N)=O)CC2)nc(-c2ccnc3[nH]ccc23)n1 (stereo unspecified) + Cc1cccc(N(C)C(=O)C2C(O)CCN2c2nc(C)cc(C(F)(F)F)c2C#N)c1 | 79.3%

same assay, conditions: second compound 0.1 µM; first compound 10 µM; hits give low values

SMILES | viability, T/C
CC1COCCN1c1cc(-c2ccnn2C)c2ccnc(-c3ccn[nH]3)c2n1 (stereo unspecified) + Cc1cccc(N(C)C(=O)C2C(O)CCN2c2nc(C)cc(C(F)(F)F)c2C#N)c1 | 28.4%
CC1COCCN1c1cc(C2(O)CC3CCC(C2)O3)c2cnn(-c3ccn[nH]3)c2n1 (stereo unspecified) + Cc1cccc(N(C)C(=O)C2C(O)CCN2c2nc(C)cc(C(F)(F)F)c2C#N)c1 | 22.2%
CC1COCCN1c1cc(C2(S(C)(=N)=O)CC2)nc(-c2ccnc3[nH]ccc23)n1 (stereo unspecified) + Cc1cccc(N(C)C(=O)C2C(O)CCN2c2nc(C)cc(C(F)(F)F)c2C#N)c1 | 55.8%

same assay, conditions: second compound 0.316 µM; first compound 0.00316 µM; hits give low values

SMILES | viability, T/C
COc1cccc(OCCCN)c1-c1cc(Nc2cnc(C#N)cn2)n[nH]1 + Cc1cccc(N(C)C(=O)C2C(O)CCN2c2nc(C)cc(C(F)(F)F)c2C#N)c1 | 90%

same assay, conditions: second compound 0.316 µM; first compound 0.01 µM; hits give low values

SMILES | viability, T/C
COc1cccc(OCCCN)c1-c1cc(Nc2cnc(C#N)cn2)n[nH]1 + Cc1cccc(N(C)C(=O)C2C(O)CCN2c2nc(C)cc(C(F)(F)F)c2C#N)c1 | 75.9%

same assay, conditions: second compound 0.316 µM; first compound 0.0316 µM; hits give low values

SMILES | viability, T/C
CC1COCCN1c1cc(-c2ccnn2C)c2ccnc(-c3ccn[nH]3)c2n1 (stereo unspecified) + Cc1cccc(N(C)C(=O)C2C(O)CCN2c2nc(C)cc(C(F)(F)F)c2C#N)c1 | 87.2%
CC1COCCN1c1cc(C2(O)CC3CCC(C2)O3)c2cnn(-c3ccn[nH]3)c2n1 (stereo unspecified) + Cc1cccc(N(C)C(=O)C2C(O)CCN2c2nc(C)cc(C(F)(F)F)c2C#N)c1 | 85.6%
CC1COCCN1c1cc(C2(S(C)(=N)=O)CC2)nc(-c2ccnc3[nH]ccc23)n1 (stereo unspecified) + Cc1cccc(N(C)C(=O)C2C(O)CCN2c2nc(C)cc(C(F)(F)F)c2C#N)c1 | 81.6%
COc1cccc(OCCCN)c1-c1cc(Nc2cnc(C#N)cn2)n[nH]1 + Cc1cccc(N(C)C(=O)C2C(O)CCN2c2nc(C)cc(C(F)(F)F)c2C#N)c1 | 59.8%

same assay, conditions: second compound 0.316 µM; first compound 0.1 µM; hits give low values

SMILES | viability, T/C
CC1COCCN1c1cc(-c2ccnn2C)c2ccnc(-c3ccn[nH]3)c2n1 (stereo unspecified) + Cc1cccc(N(C)C(=O)C2C(O)CCN2c2nc(C)cc(C(F)(F)F)c2C#N)c1 | 92.2%
CC1COCCN1c1cc(C2(O)CC3CCC(C2)O3)c2cnn(-c3ccn[nH]3)c2n1 (stereo unspecified) + Cc1cccc(N(C)C(=O)C2C(O)CCN2c2nc(C)cc(C(F)(F)F)c2C#N)c1 | 74.9%
CC1COCCN1c1cc(C2(S(C)(=N)=O)CC2)nc(-c2ccnc3[nH]ccc23)n1 (stereo unspecified) + Cc1cccc(N(C)C(=O)C2C(O)CCN2c2nc(C)cc(C(F)(F)F)c2C#N)c1 | 107%
COc1cccc(OCCCN)c1-c1cc(Nc2cnc(C#N)cn2)n[nH]1 + Cc1cccc(N(C)C(=O)C2C(O)CCN2c2nc(C)cc(C(F)(F)F)c2C#N)c1 | 59%

same assay, conditions: second compound 0.316 µM; first compound 0.316 µM; hits give low values

SMILES | viability, T/C
CC1COCCN1c1cc(-c2ccnn2C)c2ccnc(-c3ccn[nH]3)c2n1 (stereo unspecified) + Cc1cccc(N(C)C(=O)C2C(O)CCN2c2nc(C)cc(C(F)(F)F)c2C#N)c1 | 64.7%
CC1COCCN1c1cc(C2(O)CC3CCC(C2)O3)c2cnn(-c3ccn[nH]3)c2n1 (stereo unspecified) + Cc1cccc(N(C)C(=O)C2C(O)CCN2c2nc(C)cc(C(F)(F)F)c2C#N)c1 | 51.3%
